# System: 429239-143-T-J1-PDC complex spheroid viability
# Experiment: Anticancer human tumor 429239-143-T-J1-PDC patient-derived small cell lung carcinoma cell line growth inhibition [POLQ]
# Settings: for IC50: curve of first compound; for viability, T/C: stronger effect = lower value
# Protocol: Multicellular complex tumor spheroid response to Polymerase (POL) inhibitors (novobiocin, ART-558, RP6685) in combination with a variety of drugs and investigational agents in selected tumor cell lines
# The POL inhibitors (novobiocin, ART-558, and RP6685) were evaluated both individually and in combination with standard of care and investigational anticancer small molecules within a complex spheroid model of solid tumors. . Complex spheroids include a stromal component modeled by human endothelial cells (HUVEC) and fibroblasts modeled by human mesenchymal stem cells (MSCs). The concentration ranges selected for each drug and investigational agent were based upon clinically achievable concentrations if the clinical Cmax of the agent was known.
# Compounds. The drugs and investigational agents: novobiocin (NSC847541), ART-558 (NSC835418), RP-6685 (NSC848927), peposertib (NSC802822), ceralasertib (NSC780249), elimusertib (NSC800525), camonsertib (NSC841442), AZD-1390 (NSC803789), olaparib (NSC753686), talazoparib (NSC767125), rucaparib (NSC756644), sotorasib (NSC818433), MRTX-1133 (NSC836407), SN-38 (NSC673596), topotecan (NSC609699), epotoside (NSC141540), doxorubicin (NSC123127), gemcitabine (NSC613327), 5-fluorouracil (NSC19893), paclitaxel (NSC125973), vemurafenib (NSC761431), MSA-2 (NSC828583), SN-011 (NSC837082), adavosertib (NSC754352), prexasertib (NSC758257), carboplatin (NSC241240) and oxaliplatin (NSC266046), were obtained from the National Cancer Institute (NCI) Developmental Therapeutics Program Chemical Repository (21). The FDA-approved anticancer drug set is available from the Developmental Therapeutics Program at https://dtp.cancer.gov/organization/dscb/obtaining/. […] The stock solutions were prepared in dimethyl sulfoxide (DMSO, Sigma-Aldrich, St. Louis, MO, cat. D2650), except for the platinum compounds which were prepared in saline (Quality Biological, Gaithersburg, MD, cat. 114-055-101), at 800-fold the tested concentration and stored at -70 degrees C prior to their use. All drugs and investigational agents were tested over a range starting from a high concentration at or near the clinical Cmax and decreasing in half-log increments. If the clinical Cmax for an agent had not been determined, the highest concentration tested was 10 microM, except for SN-38, which was tested at a high concentration of 1 microM.
# Cell Culture. All cells were maintained in an incubator at 37 degrees C and 5% CO2 with 95% humidity. The PDC lines were cultured according to standard operating procedures established by the NCI PDMR (https://pdmr.cancer.gov). Table 3 of the manuscript, lists the cell lines along with the number of the three cell types plated to form the mct-spheroids and media for tumor cell growth. After thawing, all PDC lines, except 997537-175-T-J1-PDC and 415267-285-R-J2-PDC, were cultured in Matrigel-coated flasks prepared with a working solution of 1X Ham's F-12 nutrient mix, without supplementation (Thermo Fisher Scientific, cat. 11765054), 100 U/mL penicillin-streptomycin (Thermo Fisher Scientific, cat. 15140122), and 2.5% Matrigel (Corning Inc., Corning, NY, cat. 354248) for the first three passages. The two PDC lines 997537-175-T-J1-PDC and 415267-285-R-J2-PDC were cultured on uncoated flasks. The 857933-349-R-J2-PDC line was cultured in 6C/Colon 1B media containing advanced DMEM/F-12 (Thermo Fisher Scientific, cat. 12634028), 10 mM HEPES (Thermo Fisher Scientific, cat. 15630080), 1X GlutaMAX supplement (Thermo Fisher Scientific, cat. 35050061), 0.1 mg/mL primocin (InvivoGen, San Diego, CA, cat. ant-pm-2), 10% defined fetal bovine serum, heat inactivated (HyClone Laboratories Inc., Logan, UT, cat. SH30070.03HI), 50% L-WRN conditioned media (ATCC, cat. CRL-3276), 1.25 mM N-Acetyl-L-cysteine (Sigma-Aldrich, cat. A9165), 10 mM nicotinamide (Sigma-Aldrich, cat. N0636), 1X B-27 supplement (Thermo Fisher Scientific, cat. 17504044), 1X N-2 supplement (Thermo Fisher Scientific, cat. […]
# [1] = second compound 0.0316 µM, first compound 0.0316 µM
# [2] = second compound 0.0316 µM, first compound 0.1 µM
# [3] = second compound 0.1 µM, first compound 0.0316 µM
# [4] = second compound 0.1 µM, first compound 0.1 µM
# [5] = second compound 0.316 µM, first compound 0.0316 µM
# [6] = second compound 0.316 µM, first compound 0.1 µM
# [7] = second compound 1 µM, first compound 0.0316 µM
# [8] = second compound 1 µM, first compound 0.1 µM
# [9] = second compound 3.16 µM, first compound 0.0316 µM
# [10] = second compound 3.16 µM, first compound 0.1 µM
# [11] = second compound 10 µM, first compound 0.0316 µM
# [12] = second compound 10 µM, first compound 0.1 µM
# 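Also: luminescence signal used as surrogate measure of viable cells; spheroids exposed to compounds for seven days before readout.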
# 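For viability, T/C in this document: 100% = DMSO vehicle control viability as luminescence relative to vehicle.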
structure (smiles),measurement,setting,value
CC[C@@]1(O)C(=O)OCc2c1cc1n(c2=O)Cc2cc3c(CN(C)C)c(O)ccc3nc2-1 + Nc1ccc(C#CCN(C(=O)Cc2ncc(C(F)(F)F)cc2C(F)(F)F)c2ccc(F)cc2)nn1,IC50,second compound 0.0316 µM,16.9 nM
same,IC50,second compound 0.1 µM,17.3 nM
same,IC50,second compound 0.316 µM,17.9 nM
same,IC50,second compound 1 µM,16.7 nM
same,IC50,second compound 3.16 µM,17.7 nM
same,IC50,second compound 10 µM,17.7 nM
same,"viability, T/C","second compound 0.0316 µM, first compound 0.000316 µM",95.7%
same,"viability, T/C","second compound 0.0316 µM, first compound 0.001 µM",103%
same,"viability, T/C","second compound 0.0316 µM, first compound 0.00316 µM",106%
same,"viability, T/C","second compound 0.0316 µM, first compound 0.01 µM",84.2%
same,"viability, T/C",[1],9.5%
same,"viability, T/C",[2],5.15%
same,"viability, T/C","second compound 0.1 µM, first compound 0.000316 µM",103%
same,"viability, T/C","second compound 0.1 µM, first compound 0.001 µM",95.5%
same,"viability, T/C","second compound 0.1 µM, first compound 0.00316 µM",103%
same,"viability, T/C","second compound 0.1 µM, first compound 0.01 µM",86.9%
same,"viability, T/C",[3],9.05%
same,"viability, T/C",[4],5.15%
same,"viability, T/C","second compound 0.316 µM, first compound 0.000316 µM",101%
same,"viability, T/C","second compound 0.316 µM, first compound 0.001 µM",106%
same,"viability, T/C","second compound 0.316 µM, first compound 0.00316 µM",96.5%
same,"viability, T/C","second compound 0.316 µM, first compound 0.01 µM",92.5%
same,"viability, T/C",[5],7.36%
same,"viability, T/C",[6],9.85%
same,"viability, T/C","second compound 1 µM, first compound 0.000316 µM",107%
same,"viability, T/C","second compound 1 µM, first compound 0.001 µM",100%
same,"viability, T/C","second compound 1 µM, first compound 0.00316 µM",99.6%
same,"viability, T/C","second compound 1 µM, first compound 0.01 µM",82.9%
same,"viability, T/C",[7],8.94%
same,"viability, T/C",[8],5.82%
same,"viability, T/C","second compound 3.16 µM, first compound 0.000316 µM",101%
same,"viability, T/C","second compound 3.16 µM, first compound 0.001 µM",98%
same,"viability, T/C","second compound 3.16 µM, first compound 0.00316 µM",99.8%
same,"viability, T/C","second compound 3.16 µM, first compound 0.01 µM",89.3%
same,"viability, T/C",[9],9.67%
same,"viability, T/C",[10],5.18%
same,"viability, T/C","second compound 10 µM, first compound 0.000316 µM",104%
same,"viability, T/C","second compound 10 µM, first compound 0.001 µM",103%
same,"viability, T/C","second compound 10 µM, first compound 0.00316 µM",93.5%
same,"viability, T/C","second compound 10 µM, first compound 0.01 µM",87.8%
same,"viability, T/C",[11],11.9%
same,"viability, T/C",[12],7.53%
CCCS(=O)(=O)Nc1ccc(F)c(C(=O)c2c[nH]c3ncc(-c4ccc(Cl)cc4)cc23)c1F + Cc1cccc(N(C)C(=O)C2C(O)CCN2c2nc(C)cc(C(F)(F)F)c2C#N)c1,IC50,second compound 0.0316 µM,> 10000 nM
same,IC50,second compound 0.1 µM,> 10000 nM
same,IC50,second compound 0.316 µM,> 10000 nM
same,IC50,second compound 1 µM,> 10000 nM
same,IC50,second compound 3.16 µM,> 10000 nM
same,IC50,second compound 10 µM,> 10000 nM
same,"viability, T/C",[1],91.3%
same,"viability, T/C",[2],106%
same,"viability, T/C","second compound 0.0316 µM, first compound 0.316 µM",88.6%
same,"viability, T/C","second compound 0.0316 µM, first compound 1 µM",93.4%
same,"viability, T/C","second compound 0.0316 µM, first compound 3.16 µM",94%
same,"viability, T/C","second compound 0.0316 µM, first compound 10 µM",81.7%
same,"viability, T/C",[3],92.2%
same,"viability, T/C",[4],89.9%
same,"viability, T/C","second compound 0.1 µM, first compound 0.316 µM",89.4%
same,"viability, T/C","second compound 0.1 µM, first compound 1 µM",97.2%
same,"viability, T/C","second compound 0.1 µM, first compound 3.16 µM",93.6%
same,"viability, T/C","second compound 0.1 µM, first compound 10 µM",82.8%
same,"viability, T/C",[5],99.5%
same,"viability, T/C",[6],92.8%
same,"viability, T/C","second compound 0.316 µM, first compound 0.316 µM",96.9%
same,"viability, T/C","second compound 0.316 µM, first compound 1 µM",94.1%
same,"viability, T/C","second compound 0.316 µM, first compound 3.16 µM",87.5%
same,"viability, T/C","second compound 0.316 µM, first compound 10 µM",79%
same,"viability, T/C",[7],103%
same,"viability, T/C",[8],87.7%
same,"viability, T/C","second compound 1 µM, first compound 0.316 µM",92.3%
same,"viability, T/C","second compound 1 µM, first compound 1 µM",91%
same,"viability, T/C","second compound 1 µM, first compound 3.16 µM",90.3%
same,"viability, T/C","second compound 1 µM, first compound 10 µM",77.5%
same,"viability, T/C",[9],98.8%
same,"viability, T/C",[10],96.9%
same,"viability, T/C","second compound 3.16 µM, first compound 0.316 µM",97.4%
same,"viability, T/C","second compound 3.16 µM, first compound 1 µM",94.2%
same,"viability, T/C","second compound 3.16 µM, first compound 3.16 µM",105%
same,"viability, T/C","second compound 3.16 µM, first compound 10 µM",79.5%
same,"viability, T/C",[11],100%
same,"viability, T/C",[12],105%
same,"viability, T/C","second compound 10 µM, first compound 0.316 µM",85.2%
same,"viability, T/C","second compound 10 µM, first compound 1 µM",93.5%
same,"viability, T/C","second compound 10 µM, first compound 3.16 µM",98.8%
same,"viability, T/C","second compound 10 µM, first compound 10 µM",81.9%
